Data on three compounds can be found in patent US20030134859A1 (SANKYO COMPANY, LIMITED, priority 2000, published 2003).

Assay [1] relates to human colon cancer cells COL-2-JCK. In words: Inhibition of colony forming activity in human colon cancer cells. Format: cell-based. As to conditions: Homo sapiens, 240 h; 1 μM test compound; 10 days; sum of colony areas vs control; read-out: Inhibition Rate (%) against the colony forming activity. How it is done:
For the medium to culture the human colon cancer cells, D-MEM/F-12 medium containing inactivated bovine fetal serum at a concentration of 10% (GIBCO) was used. The human colon cancer cells COL-2-JCK (purchased from Institute for Experimental Animals) grown in mass formation in a plastic dish for the cell culture with an inner diameter of 100 mm were stripped off from the dish by using EDTA (ethylenediaminetetraacetic acid) and 0.05% trypsin solution. Then, a cell dilution solution was prepared at a concentration of 100 cells/mL solution which was diluted with the medium (D-MEM/F-12).
Three (3) mL of the cell solution were inoculated in each well of a 6-well plastic plate (300 cells/well). The test compound that was dissolved in DMSO solution so as to be a final concentration of 1 μM of the test compound and that of DMSO solution of 0.1% was added to each well. DMSO solution alone was added into the well for the control so as to be a final concentration of 0.1%.
The cells in each well were cultured for 10 days at 37° C. in the presence of 5% CO2. After the culturing was finalised, each well was washed once with Dulbecco-phosphate-buffer-saline solution (bivalent anion). Then, 1.5 ml of neutral buffered formalin solution containing 0.02% crystal violet was added to each well and the plate was kept stationary for 5 min for fixation and staining the cells. After fixation and staining, the cells were washed with water and were air-dried. Then the sum of the colony area (mm^2) of the stained cancer cells was calculated by using an image analyzer PCA-11 (SystemScience). From the calculated values, the inhibition rate (%) of the compound against the colony forming activity was obtained based on the following equation.
Inhibition Rate (%) against the colony forming activity=(1−A/B)×100
A: Sum of Colony Areas in the Group Treated with 1 μM of the Test Compound
B: Sum of Colony Areas in the Control Group

For assay [2], the target named is T1, human PPAR γ 2 (Homo sapiens, UniProt P37231).
T1 construct: expressed in transfected cells; host or cells: human osteosarcoma MG63, transiently co-transfected with pSG5-hPPARg and the reporter pGV-P2-PPRE
T1 sequence (P37231 1-505): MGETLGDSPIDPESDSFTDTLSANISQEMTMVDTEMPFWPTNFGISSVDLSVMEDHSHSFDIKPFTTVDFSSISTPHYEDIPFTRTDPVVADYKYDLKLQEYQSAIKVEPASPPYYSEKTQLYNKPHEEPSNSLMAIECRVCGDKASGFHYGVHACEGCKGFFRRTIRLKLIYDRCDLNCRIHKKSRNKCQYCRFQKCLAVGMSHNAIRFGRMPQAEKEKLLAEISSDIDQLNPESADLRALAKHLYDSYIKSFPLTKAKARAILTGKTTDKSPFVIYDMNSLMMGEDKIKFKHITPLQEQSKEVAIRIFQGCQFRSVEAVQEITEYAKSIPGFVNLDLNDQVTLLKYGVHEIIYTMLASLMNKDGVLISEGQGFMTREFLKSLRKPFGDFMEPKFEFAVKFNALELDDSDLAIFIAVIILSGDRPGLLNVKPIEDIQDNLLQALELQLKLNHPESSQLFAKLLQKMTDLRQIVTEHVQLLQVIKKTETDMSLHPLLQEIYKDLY
In words: Inhibitory activity against PPAR γ transcription in the presence of agonist compound A, luciferase reporter. Format: cell-based. As to conditions: in the presence of 10 nM compound A (agonist); MG63 cells transfected with pSG5-hPPARg and pGV-P2-PPRE; 24 hr. An excerpt: The primers of the polymerase chain reaction (hereinafter “PCR”) were designed according to the gene sequence of human PPAR γ 2 (GenBANK accession No. D83233). […] For this, 2 kinds of polynucleotides shown in the sequence numbers 1 and 2 in the sequence table described below (hereinafter “S1” and “AS1”, respectively) were used as PCR primers.
(§1) In order to determine transcriptional activity via PPAR γ, 2 kinds of polynucleotides represented in sequence numbers 3 and 4 in the sequence table described below (hereinafter “S2” and “AS2”, respectively) were used for construction of the reporter plasmid having PPAR responsive element. The DNA fragment inserted was designed based on the gene sequence in the promoter region of rat acylCo-A oxidase (J. D. Tugwood, EMBO J., 11 (2), pp433-439 (1992)). For insertion of the DNA fragment into the reporter plasmid pGV-P2 (TOYO INK MFG CO., LTD), a NheI site and an XhoI site were added to the S2 and AS2, respectively.
Using cDNA library (Clontech) derived from human adipose tissue as a template, DNA oligomers S1 and AS1 that were synthesized in the procedure 1 as primers and Ex-Taq™ (TAKARA BIO INC.) as a thermostable DNA polymerase-PCR was carried out. […] Each cycle consisted of incubation at 94° C. for 1 min for denaturation of the template, then at 55° C. for 30 sec for annealing of DNA oligomers the PCR primer, and then at 72° C. for 30 sec for extension of the chain. The obtained DNA fragments with approximately 1500 base pairs were digested at the Bgl II sites and were inserted into BamHI sites of pSG5. Thus a human PPAR γ expression plasmid named pSG5-hPPAR g was obtained.
(§2) Vector pGV-P2 digestion products was prepared by digestion using the restriction enzymes, NheI and XhoI, and purified by 1.0% agarose-gel electrophoresis. The DNA oligomers, S2 and AS2 obtained in Procedure 2, were mixed together and were incubated in a hot bath at 94° C. for 1 min. After the annealing was partially broken, they were further incubated at 25° C. for 1 hr. Thus double-stranded DNA with annealing of S2 and AS2 was formed. Then, the terminus of the double-stranded DNA with annealing of S2 and AS2 was phosphorylated with DNA polynucleotide kinase (TOYOBO CO., LTD). After that, it was ligated to the pGV-P2 digestion products which were prepared previously using the NheI site and XhoI site. Thus the reporter plasmid pGV-P2-PPRE was obtained.
(§3) Using the plasmid obtained by the procedures 3 and 4, transformation of Escherichia coli HB-101 strain was carried out by conventional methods. HB-101 strain having the plasmid was incubated in L-broth medium (containing 10 g of trypton (Difco), 5 g of yeast extract (Difco), 5 g of sodium chloride in 1 L of aqueous solution) containing 100 μg/ml of ampicillin at 37° C. for 17 hrs. Then, each plasmid was purified by the alkaline-SDS method and employed for the gene transfection to mammalian cells. After mixing the pSG5-hPPARg, PGV-P2-PPRE and LipofectAMINE reagent (GIBCO BRL), the human osteosarcoma MG63 was transiently transfected. Then the cells were recovered. The recovered cells were plated on a 96-well plate so as to be 30,000 cells/well and cultured in a CO2 incubator (NAPCO) at 37° C. for 24 hr under the condition of 5% CO2, 95%-RH.
Ten (10) nM of the following compound A (although compound A is described here as a representative compound, the compound is not limited to compound A, if the compound exerts a PPAR r agonistic activity) and various concentrations of the test compound were added to culturing medium of the cells prepared in the Procedure 5.

Assay [3] addresses T1, human PPAR γ 2. In words: PPAR γ transcriptional activity, luciferase reporter, test compound alone. The assay is classed as cell-based. The note with it: concentration indicating Emax/2, MG63 cells transfected with pSG5-hPPARg and pGV-P2-PPRE, 24 hr. How it is done:
The primers of the polymerase chain reaction (hereinafter “PCR”) were designed according to the gene sequence of human PPAR γ 2 (GenBANK accession No. D83233). In order to insert the genes into the BamHI site of the plasmid pSG5 ([…] CLONING SYSTEMS), Bgl II sites were added upstream and downstream of the genes encoding human PPAR γ 2 protein. For this, 2 kinds of polynucleotides shown in the sequence numbers 1 and 2 in the sequence table described below (hereinafter “S1” and “AS1”, respectively) were used as PCR primers.
as §1
Using cDNA library (Clontech) derived from human adipose tissue as a template, DNA oligomers S1 and AS1 that were synthesized in the procedure 1 as primers and Ex-Taq™ (TAKARA BIO INC.) as a thermostable DNA polymerase-PCR was carried out. As a result of the PCR, the c.a. 1500 bps DNA fragments were amplified. Each cycle consisted of incubation at 94° C. for 1 min for denaturation of the template, then at 55° C. for 30 sec for annealing of DNA oligomers the PCR primer, and then at 72° C. for 30 sec for extension of the chain. The obtained DNA fragments with approximately 1500 base pairs were digested at the Bgl II sites and were inserted into BamHI sites of pSG5. Thus a human PPAR γ expression plasmid named pSG5-hPPAR g was obtained. The nucleotide sequence of the inserted DNA fragment was confirmed to be identical sequence to the human PPAR γ 2 reported by the dideoxy method.
as §2, §3
Various concentrations of the test compound alone were added to culturing medium of the cells prepared in the Procedure 5. After 24 hr of culturing, LT2.0 (TOYO INK MFG CO., LTD), a luciferase substrate, was added to the medium free culture plate. […]

In assay [4] the test system is Mouse preadipocyte strain 3T3-L1. In words: Inhibition of differentiation as an indication of acetic acid uptake. The assay is classed as cell-based. The note with it: Mus musculus, 3T3-L1, 0.1 μM test substance, control (0.01% dimethylsulfoxide) = 100%, read-out: Rate of Uptake (%) of [2-14C] acetic acid. The method in brief:
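Confluent 3T3-L1 cells induced to differentiate for 4 days (insulin, IBMX, dexamethasone, 5% FBS) with test compound at 0.1 μM final or 0.01% DMSO, then 2 days in insulin maintenance medium, at 37 °C, 10% CO2. [2-14C]acetic acid uptake over 1 hr counted by scintillation; expressed as % of DMSO control.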

The next assay relates to Rat white adipocytes. The assay can be described thus: Stimulation of differentiation of the adipocytes (Oil Red O). The assay is classed as cell-based. The note with it: Rattus norvegicus, Adipocyte, 120 h, 100 nM test compound; 5 days; Oil Red O ABS550; control = 100%, blank = 0%; Table 7; read-out: Rate of Differentiation (%). The method in brief: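 Rat white adipocytes, 5,000 cells/well, cultured 5 days in differentiation-inducing medium with test compound at final 100 nM (0.1% DMSO). Cells fixed, stained with Oil Red O, dye extracted in DMSO and read at 550 nm; differentiation rate expressed relative to vehicle control (100%) and cell-free blank (0%).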

A further assay deals with Balb/c mice. In words: Prevention of concanavalin A liver injury. Format: in vivo, mouse. The note with it: Mus musculus, po, 24 h, 10 mg/mL suspension at 10 mL/kg, 30 min prior to Con A, plasma 24 hr after Con A. The method, then:
Five (5) Balb/c mice (female, 6-8 weeks old) per group were used. Liver injury was elicited in the mouse by injection of concanavalin A (Con A) dissolved in saline (2.0 mg/mL) into the tail vein at a volume of 10 mL/kg of the solution (Hepatology, 21, 190-198 (1995)).
The test compounds were suspended in distilled water containing 0.5% CMC, at a concentration of 10 mg/mL. This suspended solution was orally administered to the mouse at a volume of 10 mL/kg, 30 min prior to injection of Con A (group A).
Apart from this group, distilled water containing 0.5% CMC powder, instead of the test compound, was orally administered in the second group of mice (group B). In the 3rd group, nothing was given to the mice (group C).
Twenty four (24) hr after the injection of Con A, blood was collected from the abdominal aorta of the mice and the plasma was isolated while mixing with heparin. Activities of glutamic acid oxaloacetic acid transaminase (AST) and glutamic acid pyruvic acid transaminase (ALT) in the plasma were determined according to the methods described by Nagakawa et al. (J. Pharmacol. Exp. Ther., 264, 496-500 (1993)). From the values obtained inhibitory rates of the test compound against AST and ALT levels which had been increased by injection of Con A, were obtained based on the following equation.
Inhibitory Rate(%)={1−[(A−C)/(B−C)]}×100
A: The average level of AST or ALT in the group A
B: The average level of AST or ALT in the group B
C: The average level of AST or ALT in the group C

The mark [5] stands for this setting: read-out: Preventing rate against liver injury, ALT (%).
Setting [6] is: read-out: Preventing rate against liver injury, AST (%).

Each structure is given as a SMILES string. pEC50, pIC50: −log10 of the molar value. Like-named read-outs stand apart in the source and are kept apart here.

For the compound `Cc1nc(NS(=O)(=O)c2ccc(NC(=O)c3cc([N+](=O)[O-])ccc3Cl)cc2)oc1C` [Example 97, N-[4-(4,5-Dimethyloxazol-2-yl)aminosulfonyl]phenyl-(2-chloro-5-nitrophenyl)carboxamide], the inhibition at 1 µM in assay [1] was 3%. The pIC50 at human PPAR γ 2 [2] was 6.10. At human PPAR γ 2 [3], this compound gave a pEC50 of 6.44.
Consider `CS(=O)(=O)Nc1ccc(NC(=O)c2cc([N+](=O)[O-])ccc2Cl)cc1` [Example 136, N-(4-Methanesulfonylaminophenyl)-(2-chloro-5-nitrophenyl)carboxamide], for which the activity at 0.1 µM worked out at 88.9% in assay [4] and 129% in the assay with Rat white adipocytes. Moreover, the results for the inhibition in vivo at 10000 µg/mL, 100 mg/kg in the assay on Balb/c mice (setting [5]) and in the assay with Balb/c mice (setting [6]) were 13.1% and 12%, respectively.
Turning to `Cc1ccc(NS(=O)(=O)c2cccc(NC(=O)c3cc([N+](=O)[O-])ccc3Cl)c2)cc1` [Example 142, N-[3-(4-Tolylaminosulfonyl)phenyl]-(2-chloro-5-nitrophenyl)carboxamide], the activity at 0.1 µM in assay [4] came out at 74.4%; in the assay with Rat white adipocytes it was 112%. The values for the inhibition in vivo at 10000 µg/mL, 100 mg/kg in the assay on Balb/c mice (setting [5]) and in the assay with Balb/c mice (setting [6]) were 54% and 63%, respectively.
